Source: the supplement of paper PMC3493320

These molecules were tested on NCI-H295R (assay: IC50 (antiproliferative, ATP content)). Conditions: 48 h.
Summary of the method: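 In 1536-well plates, 1500 adrenocortical carcinoma cells per well were grown overnight in serum-free, ITS-supplemented DMEM before compounds were pin-transferred at 8 final concentrations (0.6 nM to 46 µM). After 48 h at 37 °C and 5% CO2, CellTiter-Glo luminescence was read following 20 min at room temperature and normalised to vehicle and positive-control wells. IC50 values came from logistic curve fits, with compounds lacking any concentration response listed as above the top dose.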

Row | Structure (SMILES) | IC50 [µM]
1 | OCC(=O)[C@@]2(O)CC[C@H]3[C@@H]4CC\C1=C\C(=O)CC[C@]1(C)[C@H]4[C@@H](O)C[C@]23C | > 46
2 | O=C(Cn1ccnc1[N+](=O)[O-])NCCO | > 46
3 | CCOC(=O)c1c(C)n(C)c2ccc(O)cc12 | > 46
4 | [C@@]2\1(\C(=C/C(/C=C/1)=O)CC[C@@H]4[C@@H]2CC[C@@]3([C@](O)(C)CC[C@H]34)C)C | > 46
5 | CC(C)CN(C[C@@H](OP(=O)([O-])[O-])[C@H](Cc1ccccc1)NC(=O)O[C@H]1CCOC1)S(=O)(=O)c1ccc(N)cc1.[Ca+2] | > 46
6 | COC(=O)N/N=C/c1c[n+]([O-])c2ccccc2[n+]1[O-] | > 46
7 | CCCCCCCC/C=C\CCCCCCCCN | > 46
8 | NC(CSCC(=O)O)C(=O)O (stereo unspecified) | > 46
9 | O=C(O)c1ccc(S(=O)(=O)N(Cl)Cl)cc1 | > 46
10 | CC(C)(C)NCC(O)COc1ccc(NC(=O)NC2CCCCC2)cc1 (stereo unspecified) | > 46
11 | CC1CCCC(C)N1NC(=O)c1ccc(Cl)c(S(N)(=O)=O)c1 (stereo unspecified) | > 46
12 | OC1OC[C@@H](O)[C@H](O)[C@@H]1O (stereo partly specified) | > 46
13 | CN[C@@H]1[C@@H](O)[C@@H](O[C@@H]2[C@@H](O)[C@H](OC3OC(CN)=CCC3N)[C@@H](N)C[C@H]2N)OC[C@]1(C)O.CN[C@@H]1[C@@H](O)[C@@H](O[C@@H]2[C@@H](O)[C@H](OC3OC(CN)=CCC3N)[C@@H](N)C[C@H]2N)OC[C@]1(C)O.O=S(=O)(O)O.O=S(=O)(O)O.O=S(=O)(O)O.O=S(=O)(O)O.O=S(=O)(O)O (stereo partly specified) | > 46
14 | CC(C)(Oc1ccc(C2CCCc3ccccc32)cc1)C(=O)O (stereo unspecified) | > 46
15 | COc1cc(C(=O)N2CCCCCCC2)cc(OC)c1OC | > 46
16 | Nc1ncnc2c1ncn2[C@@H]1O[C@H](CO)[C@@H](O)[C@H]1O | > 46
17 | CC12CC3CC(C)(C1)CC(N)(C3)C2 | > 46
18 | OC(C#CCN1CCCC1)(c1ccccc1)c1ccccc1 | > 46
19 | CO[C@H]1C[C@H](O[C@H]2[C@H](C)[C@@H](O[C@@H]3O[C@H](C)C[C@H](N(C)C)[C@H]3OC(C)=O)[C@@H](C)C[C@]3(CO3)C(=O)[C@H](C)[C@@H](OC(C)=O)[C@@H](C)[C@@H](C)OC(=O)[C@@H]2C)O[C@@H](C)[C@@H]1OC(C)=O | > 46
20 | CC(=O)Oc1ccc(C(=C2CCCCC2)c2ccc(OC(C)=O)cc2)cc1 | > 46
21 | N=C(Nc1ccccc1)Nc1ccccc1 | > 46
22 | C=CC1=C(C(=O)O)N2C(=O)[C@@H](NC(=O)C(=NOCC(=O)O)c3csc(N)n3)[C@H]2SC1 | > 46
23 | Cl.Cn1ccc2cc3c(cc21)CCN3C(=O)Nc1cccnc1 | > 46
24 | Cl.Cl.NC(=O)C1(N2CCCCC2)CCN(CCCC(=O)c2ccc(F)cc2)CC1 | > 46
25 | COc1cc(-c2ccc(=O)[nH]n2)ccc1OC(F)F | > 46

The molecules below were run on NCI-H295R (assay: maximal response (efficacy) relative to DMSO (0%) and doxorubicin (-100%); higher = less growth inhibition). Conditions: 48 h.

Row | Structure (SMILES) | maximal response [%]
26 | CCC(O)c1ccccc1 (stereo unspecified) | -25.2
27 | Clc1ccc(C(Cn2ccnc2)OCc2csc3c(Cl)cccc23)c(Cl)c1.O=[N+]([O-])O (stereo unspecified) | -24.9
28 | OC[C@H]1O[C@@H](n2cnc3c(O)ncnc32)[C@H](O)[C@@H]1O | 26.5
29 | CC[C@@]1([C@@H]2O[C@@H]([C@H]3O[C@@](O)(CO)[C@H](C)C[C@@H]3C)C[C@@H]2C)CC[C@H]([C@]2(C)CC[C@]3(C[C@H](O)[C@@H](C)[C@@H]([C@@H](C)[C@@H](OC)C(C)C(=O)[O-])O3)O2)O1.[Na+] (stereo partly specified) | -50.4
30 | CN[C@H]1CCc2cc(OC)c(OC)c(OC)c2-c2ccc(OC)c(=O)cc21 | -53.1
31 | CN(CC=CC#CC(C)(C)C)Cc1cccc2ccccc12 | -34.4
32 | CCC(NC(C)C)C(O)c1ccc(O)c(O)c1.CS(=O)(=O)O (stereo unspecified) | -36
33 | O[C@@]3(C#C)CC[C@H]2[C@@H]4CC/C1=C/c5oncc5C[C@]1(C)[C@H]4CC[C@@]23C | -27.4
34 | O=[N+]([O-])c1c(Cl)cccc1-c1c[nH]cc1Cl | -29.2
35 | COc1cc2c(cc1OC)C(C(C(=O)N(CCc1ccc(OC)c(OC)c1OC)CCc1ccc(OC)c(OC)c1OC)c1ccccc1)=NCC2.Cl (stereo unspecified) | -28.4
36 | Cc1ccc2c(Br)cc(Br)c(O)c2n1 | -71.4
37 | COC(CNC(=O)c1ccccc1OCC(=O)O)[CH2][Hg][OH] (stereo unspecified) | 29
38 | CN1C(=O)C(O)N=C(c2ccccc2)c2cc(Cl)ccc21 (stereo unspecified) | -27.8
39 | CCc1cccc(N(C)C(=N)Nc2cccc3ccccc23)c1.Cl | -29.2
40 | Nc1ccc(C(=O)Nc2ccccc2N)cc1 | -43.9
41 | CCc1cc(Cl)c(OC)c(C(=O)NC[C@@H]2CCCN2CC)c1O.Cl | -24.8
42 | CCCc1nc2c(C)cc(-c3nc4ccccc4n3C)cc2n1Cc1ccc(-c2ccccc2C(=O)O)cc1 | -22.7
43 | COc1cccc(N(C)C(=S)Oc2ccc3c(c2)CCCC3)n1 | -47.1

Row | Structure (SMILES) | maximal response [%]
44 | O=C(C4=CC(OC)=C(C(OC)=C4)OC)O[C@@H]1C[C@@]3([H])[C@@](C[C@](N5C3)([H])C2=C(CC5)C(C=CC=C6)=C6N2)([H])[C@H]([C@](OC)=O)[C@H]1OC | -51.8
45 | COCCOC(=O)C1=C(C)NC(C)=C(C(=O)OC/C=C/c2ccccc2)C1c1cccc([N+](=O)[O-])c1 (stereo unspecified) | -49.9
46 | CCCCc1ccc2[nH]c(NC(=O)OC)nc2c1 | -49.6
47 | S=C1SCN(Cc2ccccc2)CN1Cc1ccccc1 | -29.7
48 | CCc1oc2ccccc2c1C(=O)c1cc(Br)c(O)c(Br)c1 | -59.3
49 | CC(C)c1c(C(=O)Nc2ccccc2)c(-c2ccccc2)c(-c2ccc(F)cc2)n1CC[C@@H](O)C[C@@H](O)CC(=O)[O-].CC(C)c1c(C(=O)Nc2ccccc2)c(-c2ccccc2)c(-c2ccc(F)cc2)n1CC[C@@H](O)C[C@@H](O)CC(=O)[O-].[Ca+2] | -29.1
50 | Cl.Cl/C(=C\n1cncn1)c1ccc(Cl)cc1Cl | -28.8
51 | CCCCN(CCCC)CC(O)c1cc(Cl)cc2c1-c1ccc(Cl)cc1/C2=C/c1ccc(Cl)cc1 (stereo unspecified) | -31.5
52 | O=C1c2ccccc2C(=O)C1c1ccccc1 | -24.9
53 | CC(C)OC(=O)Nc1ccc2[nH]c(-c3cscn3)nc2c1 | -56.3
54 | CC(=O)O[C@H]\1CC[C@H]4C(=C/1)/CC[C@@H]2[C@@H]4CC[C@]3(C)[C@@](CC[C@@H]23)(C#C)OC(C)=O | -26.3
55 | COCc1c(C(C)C)nc(C(C)C)c(/C=C/[C@@H](O)C[C@@H](O)CC(=O)[O-])c1-c1ccc(F)cc1.[Na+] | -23.2
56 | CCOC(=O)[C@@H](CCc1ccccc1)N[C@@H]1CCc2ccccc2N(CC(=O)O)C1=O.Cl | -30.1
57 | CN(C)CCCN1c2ccccc2CCc2ccc(Cl)cc21 | -31.2
58 | COc1cc([C@@H]2c3cc4c(cc3[C@H](O)[C@H]3COC(=O)[C@H]23)OCO4)cc(OC)c1OC | -50.8
59 | COC1=CC(=O)C[C@@H](C)[C@]12Oc1c(Cl)c(OC)cc(OC)c1C2=O | -30.5
60 | O=C(O)c1cc(O)c2c(c1)[C@H]([C@H]1c3cc(C(=O)O)cc(O)c3C(=O)c3c(O[C@@H]4O[C@H](CO)[C@@H](O)[C@H](O)[C@H]4O)cccc31)c1cccc(O[C@@H]3O[C@H](CO)[C@@H](O)[C@H](O)[C@H]3O)c1C2=O | -34.5
61 | CC(C)[C@H](N)C(=O)OCC(CO)OCn1cnc2c(=O)nc(N)[nH]c21.Cl (stereo partly specified) | -28.1
